For three compounds, AC50 results are on record in ChEMBL document CHEMBL5291721, “A preclinical secondary pharmacology resource illuminates target-adverse drug reaction associations of marketed drugs” (Nat Commun, 2023).

Test [1] concerns the target T1, Alpha-2A adrenergic receptor (Homo sapiens, UniProt P08913).
T1 sequence (P08913 whole entry): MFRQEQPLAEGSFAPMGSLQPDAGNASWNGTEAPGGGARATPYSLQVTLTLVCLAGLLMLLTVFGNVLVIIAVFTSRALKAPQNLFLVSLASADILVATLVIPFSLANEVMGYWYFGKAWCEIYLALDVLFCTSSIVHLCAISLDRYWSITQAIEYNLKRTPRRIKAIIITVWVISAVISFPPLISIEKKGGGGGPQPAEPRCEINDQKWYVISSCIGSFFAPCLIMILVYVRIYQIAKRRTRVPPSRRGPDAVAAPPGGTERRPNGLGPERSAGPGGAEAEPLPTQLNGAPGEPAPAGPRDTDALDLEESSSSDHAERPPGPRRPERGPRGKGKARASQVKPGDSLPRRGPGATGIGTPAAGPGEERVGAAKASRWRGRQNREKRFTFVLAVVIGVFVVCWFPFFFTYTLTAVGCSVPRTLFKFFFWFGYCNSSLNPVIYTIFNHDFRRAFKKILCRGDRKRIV
The format is functional, cell-based.

In another test the target is T2, B2 bradykinin receptor (Homo sapiens, UniProt P30411).
T2 sequence (P30411 whole entry): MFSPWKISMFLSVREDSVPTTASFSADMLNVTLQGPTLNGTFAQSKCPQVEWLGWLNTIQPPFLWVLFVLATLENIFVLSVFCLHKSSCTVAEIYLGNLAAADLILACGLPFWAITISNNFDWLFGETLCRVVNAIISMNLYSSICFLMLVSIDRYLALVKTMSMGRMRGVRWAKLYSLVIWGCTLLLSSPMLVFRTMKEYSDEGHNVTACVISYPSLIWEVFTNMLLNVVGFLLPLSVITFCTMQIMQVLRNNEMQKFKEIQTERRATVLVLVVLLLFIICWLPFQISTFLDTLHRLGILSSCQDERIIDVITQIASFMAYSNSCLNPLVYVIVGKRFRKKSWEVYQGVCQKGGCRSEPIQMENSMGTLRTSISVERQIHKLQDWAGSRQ

For another test, the target named is T3, Thromboxane A2 receptor (Homo sapiens, UniProt P21731).
T3 sequence (P21731 whole entry): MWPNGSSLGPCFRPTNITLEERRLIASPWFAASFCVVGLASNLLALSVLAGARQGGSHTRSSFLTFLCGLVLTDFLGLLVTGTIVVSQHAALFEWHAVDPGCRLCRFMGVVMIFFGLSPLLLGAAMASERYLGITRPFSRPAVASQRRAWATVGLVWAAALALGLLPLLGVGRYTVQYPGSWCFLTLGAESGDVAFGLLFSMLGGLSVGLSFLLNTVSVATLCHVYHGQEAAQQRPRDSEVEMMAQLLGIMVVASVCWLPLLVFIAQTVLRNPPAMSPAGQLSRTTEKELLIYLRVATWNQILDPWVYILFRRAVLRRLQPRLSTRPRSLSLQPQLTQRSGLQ

Test [2] has as its target T4, Progesterone receptor (Homo sapiens, UniProt P06401).
T4 sequence (P06401 whole entry): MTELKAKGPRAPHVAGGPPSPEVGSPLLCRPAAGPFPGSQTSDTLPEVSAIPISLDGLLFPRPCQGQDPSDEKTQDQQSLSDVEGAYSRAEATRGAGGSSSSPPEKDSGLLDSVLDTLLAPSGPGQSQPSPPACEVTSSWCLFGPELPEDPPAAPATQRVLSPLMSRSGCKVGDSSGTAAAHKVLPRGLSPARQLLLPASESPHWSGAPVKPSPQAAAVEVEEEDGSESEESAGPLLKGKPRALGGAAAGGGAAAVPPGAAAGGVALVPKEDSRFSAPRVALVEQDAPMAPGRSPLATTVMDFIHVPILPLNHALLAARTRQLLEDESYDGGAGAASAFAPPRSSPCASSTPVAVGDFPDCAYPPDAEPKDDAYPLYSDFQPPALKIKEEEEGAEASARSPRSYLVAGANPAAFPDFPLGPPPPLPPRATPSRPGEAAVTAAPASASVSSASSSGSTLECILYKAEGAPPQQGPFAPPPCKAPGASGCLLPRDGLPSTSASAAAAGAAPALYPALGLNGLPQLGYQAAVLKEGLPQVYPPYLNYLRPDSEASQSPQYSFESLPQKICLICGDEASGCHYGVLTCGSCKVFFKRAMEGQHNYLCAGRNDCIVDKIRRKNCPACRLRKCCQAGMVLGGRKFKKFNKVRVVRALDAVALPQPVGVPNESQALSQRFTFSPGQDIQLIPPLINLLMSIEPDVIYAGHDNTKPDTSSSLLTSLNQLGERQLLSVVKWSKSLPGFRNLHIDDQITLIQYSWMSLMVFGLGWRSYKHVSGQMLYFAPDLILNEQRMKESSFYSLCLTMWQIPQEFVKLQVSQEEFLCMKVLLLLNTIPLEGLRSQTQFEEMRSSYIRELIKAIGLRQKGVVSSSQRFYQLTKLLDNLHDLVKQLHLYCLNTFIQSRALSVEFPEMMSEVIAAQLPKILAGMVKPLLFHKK
In kind it is functional.

In test [3] the target is T1, Alpha-2A adrenergic receptor. In kind it is functional, cell-based. The source holds these as a separate data set.
A further test has as its target Mu-type opioid receptor (Homo sapiens, UniProt P35372). Description: biochemical. In kind it is functional.
Test [4] concerns the target Sodium-dependent serotonin transporter (Homo sapiens, UniProt P31645).
For test [5], the target named is T4, Progesterone receptor. In kind it is functional. The source holds these as a separate data set.
Test [6] addresses T5, 5-hydroxytryptamine receptor 3A (Homo sapiens, UniProt P46098).
T5 sequence (P46098 whole entry): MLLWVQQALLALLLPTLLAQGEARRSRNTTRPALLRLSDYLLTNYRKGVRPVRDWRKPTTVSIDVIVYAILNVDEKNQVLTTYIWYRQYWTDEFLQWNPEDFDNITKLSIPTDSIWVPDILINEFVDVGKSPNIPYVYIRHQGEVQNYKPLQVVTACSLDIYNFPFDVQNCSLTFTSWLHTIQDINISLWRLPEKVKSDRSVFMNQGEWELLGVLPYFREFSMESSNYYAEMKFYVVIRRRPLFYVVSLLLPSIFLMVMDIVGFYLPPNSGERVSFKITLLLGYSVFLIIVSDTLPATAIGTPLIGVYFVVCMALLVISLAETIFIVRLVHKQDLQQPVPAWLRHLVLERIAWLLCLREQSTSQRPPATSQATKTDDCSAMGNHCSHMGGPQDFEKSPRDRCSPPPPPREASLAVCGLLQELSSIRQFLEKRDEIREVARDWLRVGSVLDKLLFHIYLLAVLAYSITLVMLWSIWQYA
The format is functional.

Sequence of Sodium-dependent serotonin transporter (P31645 whole entry): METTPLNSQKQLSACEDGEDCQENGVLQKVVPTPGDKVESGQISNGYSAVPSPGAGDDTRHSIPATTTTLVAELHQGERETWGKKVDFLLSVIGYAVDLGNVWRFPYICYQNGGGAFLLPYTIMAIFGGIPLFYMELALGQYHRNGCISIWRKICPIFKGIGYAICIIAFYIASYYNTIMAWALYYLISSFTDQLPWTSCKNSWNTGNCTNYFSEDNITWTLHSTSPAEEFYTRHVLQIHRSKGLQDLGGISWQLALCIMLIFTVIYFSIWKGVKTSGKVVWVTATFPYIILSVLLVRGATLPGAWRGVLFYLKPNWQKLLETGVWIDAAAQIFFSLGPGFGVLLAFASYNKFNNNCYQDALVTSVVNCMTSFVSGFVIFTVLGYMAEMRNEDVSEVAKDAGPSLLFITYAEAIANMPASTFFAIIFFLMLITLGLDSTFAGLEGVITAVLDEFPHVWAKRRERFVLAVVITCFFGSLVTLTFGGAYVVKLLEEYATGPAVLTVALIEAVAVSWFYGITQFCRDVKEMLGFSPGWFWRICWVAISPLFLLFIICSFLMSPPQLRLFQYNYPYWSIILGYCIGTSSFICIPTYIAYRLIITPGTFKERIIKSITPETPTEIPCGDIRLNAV
Sequence of Mu-type opioid receptor (P35372 whole entry): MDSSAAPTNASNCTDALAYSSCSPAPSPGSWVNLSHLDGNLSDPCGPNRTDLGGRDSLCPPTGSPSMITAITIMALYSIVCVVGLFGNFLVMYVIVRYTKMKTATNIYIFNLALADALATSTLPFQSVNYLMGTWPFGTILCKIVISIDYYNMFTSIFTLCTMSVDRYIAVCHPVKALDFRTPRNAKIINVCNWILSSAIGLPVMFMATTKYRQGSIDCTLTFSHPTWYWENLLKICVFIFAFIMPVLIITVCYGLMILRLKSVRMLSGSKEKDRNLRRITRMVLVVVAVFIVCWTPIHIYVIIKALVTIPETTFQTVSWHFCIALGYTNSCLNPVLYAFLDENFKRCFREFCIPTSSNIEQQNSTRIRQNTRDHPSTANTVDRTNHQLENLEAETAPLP

A word on the AC50: it is the midpoint of the concentration-response curve, whichever way the signal moves. A low value points to activity at low concentration. For `Oc1cc(Cl)ccc1Oc1ccc(Cl)cc1Cl` [TRICLOSAN], the AC50 is > 30 µM in [1]; > 30 µM on B2 bradykinin receptor; 21 µM at Thromboxane A2 receptor; 18 µM at Progesterone receptor [2]; > 30 µM in test [3]; > 30 µM on Mu-type opioid receptor. The AC50 (in test [4]; at Progesterone receptor [5]) was > 30 µM each time.

As to `CC(C)(Oc1ccc(Cl)cc1)C(=O)OCCOC(=O)c1cccnc1` [ETOFIBRATE], the AC50 (in test [1]; on B2 bradykinin receptor; on Thromboxane A2 receptor; on Progesterone receptor [2]; in test [3]; at Mu-type opioid receptor) was > 30 µM in each case. Further, the half-maximal activity concentration (AC50) (in [4]; on Progesterone receptor [5]; in test [6]) was > 30 µM throughout.

Regarding `C[C@]12C=CC(=O)C=C1C(Cl)=C[C@@H]1[C@@H]2[C@@H](O)C[C@@]2(C)[C@H]1CC[C@]2(O)C(=O)CO` [CLOPREDNOL], the AC50 is > 30 µM in [1]; > 3 µM at B2 bradykinin receptor; > 3 µM on Progesterone receptor [2]; > 30 µM in test [3]; > 30 µM on Mu-type opioid receptor; > 30 µM in [4]. Moreover, the AC50 at Progesterone receptor [5] is 2.1 µM; in test [6] it was > 30 µM.
